The nature of experiment [1]: (§1) Biochemical Assay: A variety of Ras proteins may be inhibited by compounds of the present invention (e.g., K-Ras, N-Ras, H-Ras, and mutants thereof at positions 12, 13 and 61, such as G12C, G12D, G12V, G12S, G13C, G13D, and Q61L, and others described herein). The purpose of this biochemical assay is to measure the ability of test compounds to covalently label nucleotide-loaded K-Ras isoforms. […] The sample is incubated at 25? C. for a time period of up to 24 hours prior to quenching by the addition of 10 uL of 5% Formic Acid. Quenched samples are centrifuged at 15000 rpm for 15 minutes in a benchtop centrifuge before injecting a 10 uL aliquot onto a reverse phase C4 column and eluting into the mass spectrometer with an increasing acetonitrile gradient in the mobile phase. Analysis of raw data may be carried out using Waters MassLynx MS software, with % bound calculated from the deconvoluted protein peaks for labeled and unlabeled K-Ras.

Experiment [2] in a line: as §1. This is another data set of the same source.
Experiment [3] can be described thus: as §1. This is another data set of the same source.
A short description of experiment [4]: as §1. This is another data set of the same source.
Experiment [5] can be described thus: as §1. This is another data set of the same source.
Experiment [6] in a line: as §1. This is another data set of the same source.
Experiment [7] is described as follows: as §1. This is another data set of the same source.

This is an account of results in ChEMBL document CHEMBL5729568, “Ras inhibitors” (2023).

“Also recorded” adds a separate entry of the source. Some results are limits rather than exact numbers.

By IC50 is commonly meant the concentration at which inhibition is half-maximal. Turning to `C=CC(=O)C1CC[C@H](C(=O)C(C)[C@H](C(=O)N[C@H]2Cc3nc(cs3)-c3ccc4c(c3)c(c(-c3cccnc3C(C)OC)n4CC)CC(C)(C)COC(=O)[C@@H]3CCCN(N3)C2=O)C(C)C)C1` (some centres not stated), the concentration for half-maximal inhibition (IC50) entry in experiment [1] was “in the range around 5.5 µM”; in experiment [2] it was “in the range around 5.5 µM”; in experiment [3], above 10 µM; in experiment [4] it was above 10 µM; in experiment [5], “in the range around 5.5 µM”; in experiment [6], “in the range around 550 nM”. Moreover, in experiment [7], the IC50 result is “in the range around 5.5 µM”.

For the compound `C=CC(=O)N1CC(OC[C@H](C(=O)N[C@H]2Cc3cc(cc(C(F)F)c3)-c3ccc4c(c3)c(c(-c3cccnc3C(C)OC)n4CC)CC(C)(C)COC(=O)[C@@H]3CCCN(N3)C2=O)C(C)C)C1` (some centres not stated), the IC50 in experiment [1] is above 10 µM; in experiment [2], “in the range around 5.5 µM”; in experiment [3] it was above 10 µM; in experiment [4], above 10 µM; in experiment [5], “in the range around 5.5 µM”; in experiment [6], “in the range around 5500 nM”. Further, the IC50 in experiment [7] is above 10 µM.

With `C=CC(=O)N1CC(OC[C@H](C(=O)N[C@H]2Cc3cccc(c3)-c3ccc4c(c3)c(c(-c3cccnc3C(C)OC)n4CC(F)(F)F)CC(C)(C)COC(=O)[C@@H]3CCCN(N3)C2=O)C(C)C)C1` (some centres not stated), the IC50 entry in experiment [1] is “in the range around 5.5 µM”; in experiment [2], “in the range around 0.55 µM”; in experiment [3], “in the range around 5.5 µM”; in experiment [4], “in the range around 5.5 µM”; in experiment [5], “in the range around 0.55 µM”; in experiment [6], “in the range around 55 nM”. Also, in experiment [7], the IC50 entry is “in the range around 5.5 µM”.

Turning to `CCn1c(-c2cccnc2C(C)OC)c2c3cc(ccc31)-c1cccc(c1)C[C@H](NC(=O)[C@H](C(C)C)N(C)C(=O)[C@H]1CCN(C(=O)C#C[C@@H]3COCCN3C)C1)C(=O)N1CCC[C@H](N1)C(=O)OCC(C)(C)C2` (some centres not stated), the IC50 entry in experiment [1] was “in the range around 5.5 µM”; in experiment [2] it was “in the range around 5.5 µM”; in experiment [3] it was “in the range around 5.5 µM”; in experiment [4] it was above 10 µM; in experiment [6], “in the range around 55 nM”.

In the case of `COC(C)c1ncccc1-c1c2c3cc(ccc3n1CC(F)(F)F)-c1cc(cc(C(F)F)c1)C[C@H](NC(=O)[C@@H](COC1CN(C(=O)C#CC(C)(C)N(C)C)C1)C(C)C)C(=O)N1CCC[C@H](N1)C(=O)OCC(C)(C)C2` (some centres not stated), the IC50 in experiment [1] was above 10 µM; in experiment [2], above 10 µM; in experiment [3], above 10 µM; in experiment [4], above 10 µM; in experiment [5], above 10 µM; in experiment [6], “in the range around 550 nM”. The IC50 in experiment [7] was above 10 µM.

Take `COC(C)c1ncccc1-c1c2c3cc(ccc3n1CC(F)(F)F)-c1csc(n1)C[C@H](NC(=O)[C@@H](COC1CN(C(=O)C#CC(C)(C)N(C)C)C1)C(C)C)C(=O)N1CCC[C@H](N1)C(=O)OCC(C)(C)C2` (some centres not stated): the IC50 entry in experiment [1] was “in the range around 5.5 µM”; in experiment [2] it was “in the range around 5.5 µM”; in experiment [3], “in the range around 5.5 µM”; in experiment [4], above 10 µM; in experiment [5], “in the range around 5.5 µM”; in experiment [6], below 10 nM. For the same compound, in experiment [7], the IC50 result is “in the range around 5.5 µM”.

Take `COC(C)c1ncccc1-c1c2c3cc(ccc3n1CC(F)(F)F)N1CCO[C@@H](C[C@H](NC(=O)[C@@H](COC3CN(C(=O)C#CC(C)(C)N(C)C)C3)C(C)C)C(=O)N3CCC[C@H](N3)C(=O)OCC(C)(C)C2)C1` (some centres not stated): the IC50 in experiment [1] was above 10 µM; in experiment [2], “in the range around 5.5 µM”; in experiment [3] it was “in the range around 5.5 µM”; in experiment [4], above 10 µM; in experiment [5], above 10 µM; in experiment [6], below 10 nM. In experiment [7], the IC50 was above 10 µM.

For `CCn1c(-c2cccnc2C(C)OC)c2c3cc(ccc31)-c1cccc(c1)C[C@H](NC(=O)[C@@H](COC1CN(C(=O)C#CC(C)(C)N3CCC3)C1)C(C)C)C(=O)N1CCC[C@H](N1)C(=O)OCC(C)(C)C2` (some centres not stated), the IC50 is above 10 µM in experiment [1]; “in the range around 5.5 µM” in experiment [2]; “in the range around 5.5 µM” in experiment [3]; above 10 µM in experiment [4]; “in the range around 5.5 µM” in experiment [5]; “in the range around 55 nM” in experiment [6]. In experiment [7], the half-inhibitory concentration (IC50) is above 10 µM.

Regarding `CCn1c(-c2cccnc2C(C)OC)c2c3cc(ccc31)-c1cc(O)cc(c1)C[C@H](NC(=O)[C@H](C(C)C)N(C)C(=O)c1ncc(NC(=O)/C=C/CN(C)C)n1C)C(=O)N1CCC[C@H](N1)C(=O)OCC(C)(C)C2` (some centres not stated), the IC50 entry is “in the range around 0.55 µM” in experiment [1]; below 0.01 µM in experiment [2]; “in the range around 0.55 µM” in experiment [3]; “in the range around 0.55 µM” in experiment [4]; below 10 nM in experiment [6].

With `C=CC(=O)N1CC[C@H](C(=O)N(C)[C@H](C(=O)N[C@H]2Cc3cc(sn3)-c3ccc4c(c3)c(c(-c3cccnc3[C@H](C)OC)n4CC)CC(C)(C)COC(=O)[C@@H]3CCCN(N3)C2=O)C(C)C)C1`, in experiment [7], the IC50 entry was “in the range around 5.5 µM; also recorded: in the range around 550 nM”.

Regarding `COC(C)c1ncccc1-c1c2c3cc(ccc3n1CC(F)(F)F)-c1cc(F)cc(c1)C[C@H](NC(=O)[C@@H](COC1CN(C(=O)C#CC(C)(C)N(C)C)C1)C(C)C)C(=O)N1CCC[C@H](N1)C(=O)OCC(C)(C)C2` (some centres not stated), the IC50 entry in experiment [1] was “in the range around 5.5 µM”; in experiment [2] it was “in the range around 5.5 µM”; in experiment [3], “in the range around 5.5 µM”; in experiment [4] it was above 10 µM; in experiment [5], “in the range around 5.5 µM”; in experiment [6], below 10 nM. Also, the IC50 in experiment [7] is above 10 µM.

Regarding `C=CC(=O)N1CC[C@H](C(=O)N(C)[C@H](C(=O)N[C@H]2Cc3cc(O)cc(c3)-c3ccc4c(c3)c(c(-c3cccnc3[C@H](C)OC)n4CC)CC(C)(C)COC(=O)[C@@H]3CCCN(N3)C2=O)C(C)C)C1` (atropisomer M), the IC50 result in experiment [1] was “in the range around 5.5 µM”; in experiment [2], “in the range around 5.5 µM”; in experiment [3], “in the range around 5.5 µM”; in experiment [4], “in the range around 5.5 µM”; in experiment [6], “in the range around 550 nM”.

For the compound `C=C(C)C(=O)N1CC(N(C)C(=O)N(C)[C@H](C(=O)N[C@H]2Cc3nc(cs3)-c3ccc4c(c3)c(c(-c3cccnc3[C@H](C)OC)n4CC)CC(C)(C)COC(=O)[C@@H]3CCCN(N3)C2=O)C(C)C)C1` (atropisomer, axis not shown), the IC50 result in experiment [1], in experiment [2], in experiment [3], in experiment [5] and in experiment [7] was “in the range around 5.5 µM” in each case.

Regarding `C=CC(=O)N1CC[C@H](C(=O)N(C)[C@H](C(=O)N[C@H]2Cc3nc(ns3)-c3ccc4c(c3)c(c(-c3cncnc3[C@H](C)OC)n4CC)CC(C)(C)CC=C[C@@H]3CCCN(N3)C2=O)C(C)C)C1` (stereo in doubt), the IC50 in experiment [1] is above 10 µM; in experiment [2] it was above 10 µM; in experiment [3], above 10 µM; in experiment [4], above 10 µM; in experiment [6], above 10000 nM.
